Results as given in patent publication US8193235B2, “Compositions and methods for establishing and maintaining stem cells in an undifferentiated state” (University of Kansas, priority 2009, dated 2012).

How the values were obtained:
Format in all cases: cell-based, mouse
E14 cells = assay: Growth under serum free condition (N2B27 medium)
Experimental: Growth Under Serum Free Condition. E14 cells were maintained in serum-free N2B27 medium containing DMEM/F12 (Invitrogen), Neurobasal media (Invitrogen), B27 supplement (Invitrogen), N2 supplement (Invitrogen), BSA fraction V (Invitrogen), 2-mercaptoethanol (Sigma) and LIF/BMP4 (R&D Systems, Minneapolis, Minn.) with change of medium on alternate days and passed in every 2-4 days. For experiments with Gö6983, ˜5×10^4 E14 cells were plated on each well of a gelatin-coated 6-well plate having N2B27 medium without LIF/BMP4 and with or without 5 μM Gö6983 and cultured for 3-4 days before passing. Cells were analyzed for expression of different markers (by RT-PCR or immunofluorescence study). For experiments at clonal density, initially, E14 cells were cultured at high density in N2B27 medium with Gö6983 alone for 4 passages, then ˜200 cells were plated in each wells of a 96-well plate with Gö6983 in N2B27 and cultured for 7 more days. After 7 days, colonies were analyzed for Oct4 staining.

E14 ES cells = assay: ES cell differentiation on collagen IV and with retinoic acid
Excerpt: ES Cell Differentiation on Collagen-IV and With Retinoic Acid. To differentiate ES cells in monolayer culture on collagen IV, around 3×10^4 cells per well were transferred to collagen IV-coated 6-well plates (BD Biosciences, Franklin Lakes, N.J.) cultured for 5 days in ES differentiation medium containing DMEM (Invitrogen), 15% FBS (selected for endothelial differentiation, Stem Cell Technologies, Vancouver, BC), sodium pyruvate and L-glutamine with or without LIF and Gö6983, and were recovered by cell dissociation buffer (BD Biosciences, Franklin Lakes, N.J.). For culturing multiple passages with Gö6983 on collagen-IV, the recovered cells were again plated at a density of ˜3×10^4 cells per well and cultured again for 5 days. […] For RA-induced differentiation on monolayer culture, ES cells were treated with all-trans-retinoic acid (Sigma, St. Louis, Mo.) in ethanol at a concentration of 1 μM with or without LIF and Gö6983 for 6 days followed by study of expression of pluripotency markers (by immunofluorescence or western blot or RT-PCR analysis).

NF-κB = assay: NF-κB5X-Luc reporter activation; settings: E14 cells
Experimental: Analysis of NF-κB5X-Luc Reporter Activation. E14 ES or PKCζkd cells (2-4×10^4) were seeded on 24-well plates […]. Cells were transfected with 1 μg of plasmid ([…] NF-kB cis-Reporting System, Stratagene) in OPTI-MEM. Transfection mixture was removed after 5 hours with appropriate media. Luciferase activity was measured 24 hours post-transfection and expressed relative to total protein present in the whole cell lysate.

[1] = tested on: Oct4 and Nanog promoter regions; assay: DNA methylation analysis (bisulfite sequencing, MSP); settings: E14 cells, 5 days on collagen-IV
Excerpt: DNA Methylation Analysis. One μg of genomic DNA was subjected to bisulfite treatment using CPGENOME Fast DNA Modification Kit (Chemicon Int.). For bisulfite sequencing, the modified DNA was amplified by nested polymerase chain reaction (PCR) using two forward (F) primers and one reverse (R) primer: Oct4 (F1, 5′-GTTGTTTTGTTTTGGTTTTGGATAT-3′, SEQ ID NO:57; F2, 5′-ATGGGTTGAAATATTGGGTTTATTTA-3′, SEQ ID N:58; and R, 5′-CCACCCTCTAACCTTAACCTCTAAC-3′, SEQ ID NO:59) and Nanog (F1, 5′-GAGGATGTTTTTTAAGTTTTTTTT-3′, SEQ ID NO:60; F2, 5′-AATGTTTATGGTGGATTTTGTAGGT-3′, SEQ ID NO:;61; and R, 5′-CCCACACTCATATCAATATAATAAC-3′, SEQ ID NO:62). The resulting PCR product was gel purified, subcloned into pGEM-T vector (Promega) and sequenced using M13R primer. Following primers were used for MSP: Oct4, (F) 5′-GGTTTTAGAAATAATTGGTATACGA-3′ (SEQ ID NO:63), and (R) 5′-CTATTAACACTACACCCTCTCGAC-3′ (SEQ ID NO:64); and Nanog, (F) 5′-ATTTGTGAGTATAAGGATTGATCGG-3′ (SEQ ID NO:65), and (R) 5′-TTTCTTTAAAATAAAATTTCACGTA-3′ (SEQ ID NO:66). PCR products were analyzed on agarose gel.

COc1ccc2c(c1)c(C1=C(c3c[nH]c4ccccc34)C(=O)NC1=O)cn2CCCN(C)C [Gö6983, 3-[1-[3-(dimethylamino)propyl]5-methoxy-1H-indol-3-yl]-4-(1H-indol-3-yl)-1H-pyrrole-2,5-dione]
cell survival when propagated at clonal density in N2B27 medium (E14 cells; N2B27 medium plus Gö6983, clonal density): poor
induction of inhibitor-of-differentiation genes (E14 cells; N2B27 without serum, LIF, BMP4, FIG. 1C): not associated with the induction of inhibitor-of-differentiation genes
undifferentiated state in N2B27 medium (E14 cells; without serum, LIF and BMP4): could be maintained in an undifferentiated state
multidifferentiation potential upon withdrawal of Gö6983 (E14 ES cells; ES cells maintained five passages with Gö6983, then withdrawal, FIG. 1E): readily formed EBs or differentiated on collagen IV with induction of lineage-specific gene expression
ES cell differentiation in the presence of collagen IV or retinoic acid (E14 ES cells; absence of LIF): inhibited ES cell differentiation
lineage-specific gene expression on collagen IV (E14 ES cells; quantitative RT-PCR, FIG. 1D): repression of lineage-specific gene expression
differentiation during continuous culture on collagen IV plates (E14 ES cells; without LIF, up to 8 consecutive passages): without any noticeable differentiation
NFκ5x-Luc reporter gene activation (NF-κB): strongly inhibited
DNA methylation of promoter regions of Oct4 and Nanog [1]: remained largely unmethylated
